What was measured:
cytochrome P450 1A2 = details: cited from earlier work
hepatitis C virus (HCV) [1] = details: in vitro; cited from earlier work
cyclophilin A = cyclophilin A (Homo sapiens, UniProt P62937); details: cited from earlier work
calcineurin = details: at concentrations up to 2 μM; cited from earlier work
ROS = experiment: brain ROS levels after anesthesia/surgery; set-up: species or system mice; details: mouse, in vivo
hepatitis C virus (HCV) [2] = details: two-drug combination, in vitro; cited from earlier work
ATP = experiment: brain ATP measurement after anesthesia/surgery; assay type: in vivo, mice; details: 26.4 mg/kg IP
Excerpt: 9-month-old C57BL/J6 female mice were adaptive in lab for 3 days. The mice were randomly assigned to the anesthesia/surgery group or control group by weight. […] Specifically, the inventors anesthetized each of the mice using 1.4% isoflurane in 100% oxygen in a transparent acrylic chamber. Fifteen minutes after the induction, the inventors moved the mouse out of the chamber. Isoflurane anesthesia was maintained via a cone device, and one 16-gauge needle was inserted into the cone near the nose of the mouse to monitor the concentration of isoflurane. The inventors made a longitudinal midline incision from the xiphoid to the 0.5 centimeter proximal pubic symphysis on the skin, abdominal muscles and peritoneum. The inventors then sutured the incision layer by layer with 5-0 Vicryl thread. […]
ATP Measurement. The levels of ATP in the cortex of mice (N=6 in each group) were determined by the ATP Colorimetric/Fluorometric Assay Kit following the protocol provided by the manufacturer (Abcam, Cambridge, MA). […] The amount of fluorescence will be measured and the levels of ATP in the experimental samples will be calculated from the standard curve made from samples containing a known amount of ATP.

[3] = tested on: anesthesia/surgery-induced cognitive impairment; experiment: Fear Conditioning Test (FCT); assay type: in vivo, mice; details: 52.8 mg/kg IP; Tone test 48 hours, Context test 7 days after anesthesia/surgery; FIG. 6A-6D
Excerpt: (§1) 9-month-old C57BL/J6 female mice were adaptive in lab for 3 days. The mice were randomly assigned to the anesthesia/surgery group or control group by weight. […] Specifically, the inventors anesthetized each of the mice using 1.4% isoflurane in 100% oxygen in a transparent acrylic chamber. Fifteen minutes after the induction, the inventors moved the mouse out of the chamber. Isoflurane anesthesia was maintained via a cone device, and one 16-gauge needle was inserted into the cone near the nose of the mouse to monitor the concentration of isoflurane. The inventors made a longitudinal midline incision from the xiphoid to the 0.5 centimeter proximal pubic symphysis on the skin, abdominal muscles and peritoneum. The inventors then sutured the incision layer by layer with 5-0 Vicryl thread.
(§2) The inventors applied EMLA cream (2.5% lidocaine and 2.5% prilocaine) to the incision site at the end of the procedure, and then every eight hours until the euthanasia of the mice, to treat the pain associated with the incision. […]
The first tone test was performed at 90 minutes after the end of the pairing. […] The “freezing behavior” was analyzed by Any-Maze (freezing on threshold: 10; freezing off threshold: 20; minimum freezing duration: one second) (Stoelting). The percentage of freezing time was calculated by dividing the actual freezing time with the observed time (180 seconds).

[4] = tested on: stimulated human peripheral blood mononuclear cells; details: cited from earlier work
IL-6 = experiment: brain IL-6 levels after anesthesia/surgery; set-up: species or system mice; details: mouse, in vivo
Method: Brain Tissue Harvest, Lysis and Protein Quantification. Different mice will be used for the harvest of brain tissue. Levels of interleukin-6 (IL-6) and postsynaptic density (PSD)-95 in the cortex and hippocampus of mice will be assessed. The brain tissues (cortex and hippocampus) of the mice will be harvested immediately at the end of the anesthesia/surgery by decapitation. The harvested brain tissues will be homogenized on ice using immunoprecipitation buffer (10 mM Tris-HCl, pH 7.4, 150 mM NaCl, 2 mM EDTA, 0.5% Nonidet P-40) plus protease inhibitors ([…]). The lysates will be collected, centrifuged at 10,000 rpm for 5 minutes at 4° C., and quantified for total proteins by bicinchoninic acid (BCA) protein assay kit (Pierce, Iselin, NJ). The brain tissues will then be subjected to Western Blot.

cytochrome P450 2B6 = details: cited from earlier work
synaptophysin = experiment: Western blot of brain synaptophysin after anesthesia/surgery; assay type: in vivo, mice; details: 26.4 mg/kg IP
[5] = multiple animal species, cited from earlier work
[6] = tested on: anesthesia/surgery-induced cognitive impairment; experiment: Barnes Maze Test; assay type: in vivo, mice; details: 26.4 mg/kg and 13.2 mg/kg IP; one week after anesthesia/surgery; FIG. 7A-7J
Excerpt: as §1, §2
One week after anesthesia/surgery, animals were subjected to Barnes maze to test their spatial learning and memory. […] The latency and number of errors to find the target box during each trial were recorded with the assistance of ANY-Maze video tracking system.

P-glycoprotein = P-glycoprotein (Homo sapiens, UniProt P08183); details: cited from earlier work
PSD-95 = experiment: Western blot of brain PSD-95 after anesthesia/surgery; assay type: in vivo, mice; details: 26.4 mg/kg IP
Excerpt: 9-month-old C57BL/J6 female mice were adaptive in lab for 3 days. The mice were randomly assigned to the anesthesia/surgery group or control group by weight. […] Specifically, the inventors anesthetized each of the mice using 1.4% isoflurane in 100% oxygen in a transparent acrylic chamber. Fifteen minutes after the induction, the inventors moved the mouse out of the chamber. Isoflurane anesthesia was maintained via a cone device, and one 16-gauge needle was inserted into the cone near the nose of the mouse to monitor the concentration of isoflurane. […]
Brain Tissue Harvest, Lysis and Protein Quantification. […] Levels of interleukin-6 (IL-6) and postsynaptic density (PSD)-95 in the cortex and hippocampus of mice will be assessed. […] The lysates will be collected, centrifuged at 10,000 rpm for 5 minutes at 4° C., and quantified for total proteins by bicinchoninic acid (BCA) protein assay kit (Pierce, Iselin, NJ). […]
Western Blot Analysis. […] Western blot quantification was performed as described. Briefly, signal intensity was analyzed using a Bio-Rad (Hercules, CA) image program (Quantity One). The inventors quantified Western blots in two steps, first, the inventors used β-Actin levels to normalize (e.g., determine the ratio of PSD-95 to β-Actin amount) protein levels and control for loading differences in the total protein amount. […]

cytochrome P450 3A4 = details: cited from earlier work
stimulated Jurkat cells = details: cited from earlier work

Sequence of P-glycoprotein (P08183 whole entry): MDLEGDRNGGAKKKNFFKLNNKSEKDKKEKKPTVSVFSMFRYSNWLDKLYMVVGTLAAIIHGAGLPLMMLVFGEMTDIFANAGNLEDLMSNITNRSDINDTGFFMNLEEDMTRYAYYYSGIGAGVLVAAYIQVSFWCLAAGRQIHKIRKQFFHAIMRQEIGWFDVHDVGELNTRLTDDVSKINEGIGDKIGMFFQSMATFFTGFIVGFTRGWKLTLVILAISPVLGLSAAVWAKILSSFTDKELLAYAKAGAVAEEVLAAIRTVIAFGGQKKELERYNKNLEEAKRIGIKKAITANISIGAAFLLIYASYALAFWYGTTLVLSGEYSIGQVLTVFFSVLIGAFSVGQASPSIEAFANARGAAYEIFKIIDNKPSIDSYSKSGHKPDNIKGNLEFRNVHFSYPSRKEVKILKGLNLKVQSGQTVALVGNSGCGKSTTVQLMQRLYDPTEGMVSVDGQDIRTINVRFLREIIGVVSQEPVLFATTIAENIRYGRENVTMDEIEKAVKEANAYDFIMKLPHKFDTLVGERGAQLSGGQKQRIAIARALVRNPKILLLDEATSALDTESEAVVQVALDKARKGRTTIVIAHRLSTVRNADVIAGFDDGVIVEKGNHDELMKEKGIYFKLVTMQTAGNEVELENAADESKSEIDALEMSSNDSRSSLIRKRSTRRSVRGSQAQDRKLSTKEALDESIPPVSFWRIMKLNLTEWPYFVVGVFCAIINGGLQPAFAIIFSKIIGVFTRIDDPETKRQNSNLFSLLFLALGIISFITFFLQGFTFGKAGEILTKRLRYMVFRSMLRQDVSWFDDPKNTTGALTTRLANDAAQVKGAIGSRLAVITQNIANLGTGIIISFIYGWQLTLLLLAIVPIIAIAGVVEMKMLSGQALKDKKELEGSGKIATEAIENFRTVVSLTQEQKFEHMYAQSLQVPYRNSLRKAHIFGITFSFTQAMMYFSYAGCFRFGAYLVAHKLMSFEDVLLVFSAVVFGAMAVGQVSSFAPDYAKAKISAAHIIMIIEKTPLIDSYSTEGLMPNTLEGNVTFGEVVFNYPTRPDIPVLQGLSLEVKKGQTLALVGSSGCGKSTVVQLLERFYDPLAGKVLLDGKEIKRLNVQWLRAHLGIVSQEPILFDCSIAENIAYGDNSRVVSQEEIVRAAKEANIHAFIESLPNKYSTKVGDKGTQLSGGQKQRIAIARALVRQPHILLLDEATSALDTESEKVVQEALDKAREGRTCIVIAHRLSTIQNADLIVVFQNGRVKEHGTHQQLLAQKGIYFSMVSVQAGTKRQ
Sequence of cyclophilin A (P62937 whole entry, species assumed): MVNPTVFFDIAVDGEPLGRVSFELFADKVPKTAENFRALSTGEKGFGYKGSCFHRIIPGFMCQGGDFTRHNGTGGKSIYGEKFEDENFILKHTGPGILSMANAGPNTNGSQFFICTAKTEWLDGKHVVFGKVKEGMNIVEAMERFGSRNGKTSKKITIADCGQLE

C/C=C/C[C@@H](C)[C@@H](O)[C@H]1C(=O)N[C@@H](CC)C(=O)N(C)[C@H](SCCN(C)C)C(=O)N(C)[C@@H](CC(C)(C)O)C(=O)N[C@@H](C(C)C)C(=O)N(C)[C@@H](CC(C)C)C(=O)N[C@@H](C)C(=O)N[C@H](C)C(=O)N(C)[C@@H](CC(C)C)C(=O)N(C)[C@@H](CC(C)C)C(=O)N(C)[C@@H](C(C)C)C(=O)N1C [WS-635, (3S,6S,9S,12R,15S,18S,21S,24S,27R,30S,33S)-27-((2-(dimethylamino)ethyl)thio)-30-ethyl-33-((1R,2R,E)-1-hydroxy-2-methylhex-4-en-1-yl)-24-(2-hydroxy-2-methylpropyl)-6,9,18-tri isobutyl-3,21-diisopropyl-1,4,7,10,12,15,19,25,28-nonamethyl-1,4,7,10,13,16,19,22,25,28,31-undecaazacyclotritriacontan-2,5,8,11,14,17,20,23,26,29,32-undecaone]
induction of cytochrome P450 1A2 (cytochrome P450 1A2): did not induce
suppression of HCV replication (hepatitis C virus (HCV) [1]): potent suppression
inhibition of peptidyl prolyl isomerase activity of cyclophilin A (cyclophilin A): nanomolar concentrations
inhibition of calcineurin phosphatase activity (calcineurin): no detectable inhibition
anesthesia/surgery-induced changes in brain levels of ROS (ROS): attenuate
antiviral activity in combination with alpha interferon 2b (hepatitis C virus (HCV) [2]): synergistic antiviral activity
antiviral activity in combination with ribavirin (hepatitis C virus (HCV) [2]): additive antiviral activity
anesthesia/surgery-induced decrease of ATP level in cortex (ATP; cortex, FIG. 5A): mitigate
anesthesia/surgery-induced decrease of ATP level in hippocampus (ATP; hippocampus, FIG. 5B): mitigate
anesthesia/surgery-induced reduction in freezing time [3]: mitigated
inhibition of interleukin-2 secretion compared with cyclosporine [4]: weaker inhibitor
anesthesia/surgery-induced changes in brain levels of IL-6 (IL-6): attenuate
induction of cytochrome P450 2B6 (cytochrome P450 2B6): did not induce
anesthesia/surgery-induced decrease of synaptophysin level in cortex (synaptophysin; cortex, FIG. 3): mitigate
anesthesia/surgery-induced decrease of synaptophysin level in hippocampus (synaptophysin; hippocampus, FIG. 4): mitigate
oral bioavailability [5]: orally bioavailable
blood and liver concentrations of parent drug versus 50% effective dose in replicon assay ([5]; oral): exceeded the 50% effective dose
anesthesia/surgery-induced decrease in escape speed [6]: mitigated
anesthesia/surgery-induced increase in escape latency [6]: mitigated
inhibition of P-glycoprotein (P-glycoprotein): weak inhibitor
substrate for P-glycoprotein (P-glycoprotein): poor substrate
anesthesia/surgery-induced decrease of PSD-95 level in cortex (PSD-95; cortex, FIG. 3): mitigate
anesthesia/surgery-induced decrease of PSD-95 level in hippocampus (PSD-95; hippocampus, FIG. 4): mitigate
induction of cytochrome P450 3A4 (cytochrome P450 3A4): did not induce
inhibition of interleukin-2 secretion compared with cyclosporine (stimulated Jurkat cells): weaker inhibitor

— patent US12226446B2, “WS-635 uses thereof in medicine” (WATERSTONE PHARMACEUTICALS(WUHAN) CO., LTD., priority 2019, dated 2025)
